Non-standard residues stand in square brackets, D forms with d. Residues, ends and D or L forms follow the SMILES beside them. *: point of attachment. Asu = N[C@@H](CCCCCC(=O)O)C(=O)O; dPip = O=C(O)[C@H]1CCCCN1; NHOH = ON*
Tests used:
Histone deacetylase 3 [1] = target: T1, Histone deacetylase 3 (Homo sapiens, UniProt O15379); experiment: Binding affinity to HDAC3 (unknown origin) assessed as inhibition constant(ki,1)
Histone deacetylase 3 [2] = target: T1, Histone deacetylase 3; experiment: Binding affinity to HDAC3 (unknown origin) assessed as inhibition constant
Histone deacetylase 3 [3] = target: T1, Histone deacetylase 3; experiment: Binding affinity to HDAC3 (unknown origin) assessed as binding constant(k2)
Histone deacetylase 11 = target: T2, Histone deacetylase 11 (Homo sapiens, UniProt Q96DB2); experiment: Binding affinity to human HDAC11 assessed as inhibition constant (ki,1)
T2 sequence (Q96DB2 whole entry): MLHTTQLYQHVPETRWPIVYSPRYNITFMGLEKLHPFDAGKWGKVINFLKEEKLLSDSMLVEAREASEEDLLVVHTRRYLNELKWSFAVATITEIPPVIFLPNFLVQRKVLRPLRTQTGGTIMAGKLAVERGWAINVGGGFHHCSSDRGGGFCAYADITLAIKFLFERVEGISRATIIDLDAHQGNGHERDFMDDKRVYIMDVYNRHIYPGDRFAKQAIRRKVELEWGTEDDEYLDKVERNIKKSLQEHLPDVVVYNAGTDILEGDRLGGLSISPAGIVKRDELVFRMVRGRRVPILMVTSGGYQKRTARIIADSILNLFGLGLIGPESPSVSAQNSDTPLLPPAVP

Histone deacetylase 3 [4] = target: T1, Histone deacetylase 3; experiment: Binding affinity to HDAC3 (unknown origin) assessed as residence time
[5] = target: T3, Protein deacetylase HDAC6 (Homo sapiens, UniProt Q9UBN7); experiment: Binding affinity to recombinant human HDAC6 using Ac-Leu-Gly-Lys(Ac)-AMC as substrate measured after 60 mins assessed as inhibition constant by fluorescence based assay
T3 sequence (Q9UBN7 whole entry): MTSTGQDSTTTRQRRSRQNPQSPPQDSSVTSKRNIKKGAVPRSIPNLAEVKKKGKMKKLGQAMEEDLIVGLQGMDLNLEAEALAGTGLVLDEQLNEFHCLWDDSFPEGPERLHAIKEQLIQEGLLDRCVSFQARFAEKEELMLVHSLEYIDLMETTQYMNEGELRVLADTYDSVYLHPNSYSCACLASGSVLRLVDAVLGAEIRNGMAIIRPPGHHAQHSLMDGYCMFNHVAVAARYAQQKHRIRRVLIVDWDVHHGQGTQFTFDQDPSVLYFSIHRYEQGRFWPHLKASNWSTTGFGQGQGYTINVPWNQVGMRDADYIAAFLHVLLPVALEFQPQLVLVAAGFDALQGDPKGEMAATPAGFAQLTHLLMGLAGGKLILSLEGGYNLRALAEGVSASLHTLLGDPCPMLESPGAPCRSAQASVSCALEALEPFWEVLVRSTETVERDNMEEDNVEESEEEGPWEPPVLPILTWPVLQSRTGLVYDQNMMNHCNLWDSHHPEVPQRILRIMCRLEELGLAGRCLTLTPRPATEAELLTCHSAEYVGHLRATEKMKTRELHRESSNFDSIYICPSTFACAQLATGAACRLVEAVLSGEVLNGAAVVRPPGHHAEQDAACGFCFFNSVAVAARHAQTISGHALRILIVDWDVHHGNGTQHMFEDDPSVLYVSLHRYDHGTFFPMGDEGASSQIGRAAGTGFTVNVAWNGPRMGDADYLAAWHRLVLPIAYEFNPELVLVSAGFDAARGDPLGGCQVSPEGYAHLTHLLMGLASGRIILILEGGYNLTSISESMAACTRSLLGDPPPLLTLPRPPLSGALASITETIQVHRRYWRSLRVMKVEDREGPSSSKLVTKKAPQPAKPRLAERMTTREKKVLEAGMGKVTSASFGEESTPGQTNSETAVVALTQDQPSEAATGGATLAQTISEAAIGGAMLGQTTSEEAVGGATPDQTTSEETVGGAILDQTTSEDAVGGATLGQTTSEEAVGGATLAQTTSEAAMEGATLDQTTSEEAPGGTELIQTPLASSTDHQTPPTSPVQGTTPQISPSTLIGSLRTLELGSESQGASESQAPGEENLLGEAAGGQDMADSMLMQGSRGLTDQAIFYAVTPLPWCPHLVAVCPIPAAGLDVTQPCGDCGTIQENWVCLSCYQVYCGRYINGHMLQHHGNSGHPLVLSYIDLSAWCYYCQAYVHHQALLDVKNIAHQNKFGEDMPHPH

[6] = target: T4, Protein deacetylase HDAC6 (Homo sapiens) (UniProt Q9UBN7); experiment: Binding affinity to recombinant human HDAC6 using Ac-Leu-Gly-Lys(Ac)-AMC as substrate measured after 60 mins assessed as binding constant (k-2) by fluorescence based assay
T4 sequence (whole entry): T3 sequence (Q9UBN7 whole entry)

[7] = target: T5, Histone deacetylase 11 (Homo sapiens) (UniProt Q96DB2); experiment: Binding affinity to human HDAC11 assessed as binding constant (k2)
T5 sequence (whole entry): T2 sequence (Q96DB2 whole entry)

[8] = target: T4, Protein deacetylase HDAC6 (Homo sapiens); experiment: Binding affinity to recombinant human HDAC6 using Ac-Leu-Gly-Lys(Ac)-AMC as substrate assessed as residence time
Histone deacetylase 2 = Histone deacetylase 2 (Homo sapiens, UniProt Q92769); experiment: Binding affinity to HDAC2 (unknown origin) assessed as inhibition constant(ki,1)
Chain of Histone deacetylase 2 (Q92769 whole entry): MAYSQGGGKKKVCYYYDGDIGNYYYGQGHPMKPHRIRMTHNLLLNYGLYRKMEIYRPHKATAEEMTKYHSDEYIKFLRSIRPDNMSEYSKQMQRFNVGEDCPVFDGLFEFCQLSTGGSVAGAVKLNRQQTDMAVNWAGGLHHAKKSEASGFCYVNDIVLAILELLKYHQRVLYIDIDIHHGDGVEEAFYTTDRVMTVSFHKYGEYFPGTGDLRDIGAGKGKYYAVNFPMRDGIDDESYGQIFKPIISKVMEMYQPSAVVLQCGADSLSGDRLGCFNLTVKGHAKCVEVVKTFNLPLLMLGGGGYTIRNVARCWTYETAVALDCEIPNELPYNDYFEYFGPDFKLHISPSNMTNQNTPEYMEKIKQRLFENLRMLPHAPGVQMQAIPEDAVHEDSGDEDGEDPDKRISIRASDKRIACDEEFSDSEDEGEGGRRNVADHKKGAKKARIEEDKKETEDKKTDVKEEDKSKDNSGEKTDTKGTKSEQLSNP

[9] = target: T5, Histone deacetylase 11 (Homo sapiens); experiment: Binding affinity to human HDAC11 assessed as binding constant (k-2)
Histone deacetylase 1 = Histone deacetylase 1 (Homo sapiens, UniProt Q13547); experiment: Binding affinity to HDAC1 (unknown origin) assessed as inhibition constant(ki,1)
Chain of Histone deacetylase 1 (Q13547 whole entry): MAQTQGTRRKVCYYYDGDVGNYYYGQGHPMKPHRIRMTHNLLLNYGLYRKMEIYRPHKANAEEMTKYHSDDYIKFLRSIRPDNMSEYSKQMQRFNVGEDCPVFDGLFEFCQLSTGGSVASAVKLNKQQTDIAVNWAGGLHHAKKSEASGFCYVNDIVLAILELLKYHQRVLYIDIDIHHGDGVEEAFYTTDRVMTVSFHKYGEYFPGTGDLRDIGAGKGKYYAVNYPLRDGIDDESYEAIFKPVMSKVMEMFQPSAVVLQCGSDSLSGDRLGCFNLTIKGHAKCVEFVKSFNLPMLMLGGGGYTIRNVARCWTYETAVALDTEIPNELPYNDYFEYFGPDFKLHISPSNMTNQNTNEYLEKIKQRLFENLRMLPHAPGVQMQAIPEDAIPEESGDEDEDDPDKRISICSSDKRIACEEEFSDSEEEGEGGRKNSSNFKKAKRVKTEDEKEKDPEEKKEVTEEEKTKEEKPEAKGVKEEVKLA

[10] = target: T4, Protein deacetylase HDAC6 (Homo sapiens); experiment: Binding affinity to recombinant human HDAC6 using Ac-Leu-Gly-Lys(Ac)-AMC as substrate measured after 60 mins assessed as binding constant (k2) by fluorescence based assay
[11] = target: T3, Protein deacetylase HDAC6; experiment: Binding affinity to recombinant human HDAC6 using Ac-Leu-Gly-Lys(Ac)-AMC as substrate measured after 60 mins assessed as inhibition constant (ki,1) by fluorescence based assay
Histone deacetylase 3 [12] = target: T1, Histone deacetylase 3; experiment: Binding affinity to HDAC3 (unknown origin) assessed as binding constant(k-2)

T1 sequence (O15379 whole entry): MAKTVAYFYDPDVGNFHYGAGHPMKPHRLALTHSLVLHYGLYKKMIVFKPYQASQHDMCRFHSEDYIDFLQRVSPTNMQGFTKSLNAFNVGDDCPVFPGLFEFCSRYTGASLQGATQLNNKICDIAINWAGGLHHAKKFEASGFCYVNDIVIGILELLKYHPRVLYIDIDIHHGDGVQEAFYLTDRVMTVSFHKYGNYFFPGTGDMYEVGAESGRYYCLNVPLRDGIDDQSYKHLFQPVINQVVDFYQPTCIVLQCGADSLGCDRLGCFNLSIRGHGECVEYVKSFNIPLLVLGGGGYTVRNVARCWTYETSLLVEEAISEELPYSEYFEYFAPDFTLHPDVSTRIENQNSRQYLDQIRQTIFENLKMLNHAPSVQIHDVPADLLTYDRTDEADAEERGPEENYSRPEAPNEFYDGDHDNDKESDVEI

Ki (Histone deacetylase 3 [1]): 1.6 nM
Ki (Histone deacetylase 3 [2]): 0.04 nM
K (Histone deacetylase 3 [3]): 0.158 min⁻¹
Ki (Histone deacetylase 11): 18 nM
TIME (Histone deacetylase 3 [4]): 1.85 h
Ki [5]: ~3.6 nM
K [6]: 0.01 min⁻¹
K [7]: 0.73 min⁻¹
TIME [8]: 1.67 h
Ki (Histone deacetylase 2): 0.35 nM
K [9]: 0 min⁻¹
Ki (Histone deacetylase 1): 0.32 nM
K [10]: 0.17 min⁻¹
Ki [11]: 23 nM
K (Histone deacetylase 3 [12]): 0.009 min⁻¹
SMILES: CC[C@H](C)[C@@H]1NC(=O)[C@H](Cc2c[nH]c3ccccc23)NC(=O)[C@H](CCCCCC(=O)NO)NC(=O)[C@H]2CCCCN2C1=O (cyclo([Asu](NHOH)WI[dPip]))
